{
  "source": "patent US20260209263A1",
  "about": "“UNNATURAL SUGAR, AND SYNTHESIS METHOD THEREFOR AND USE THEREOF” (HEFEI LINXCELL BIOTECHNOLOGIES CO., LTD, priority 2022, published 2026)",
  "key": {"[1]": {"test_system": "HeLa cells", "experiment": "Metabolic glycan labeling in living HeLa cells, Cy5 in-gel fluorescence", "format": "cell-based", "conditions": "for labeling efficiency compared with 1,6-Pr2GalNAz or 1,6-Pr2ManNAz: 200 μM; for labeling efficiency compared with GalNAz or ManNAz: 200 μM of 1,6-bis-acylated sugar vs 2 mM of sugar without protecting groups", "method": "In order to verify the metabolic labeling effect of the above-mentioned 1,6-bis-acylated unnatural sugars in living cells, HeLa cells were metabolically labeled with the above-mentioned different compounds. The specific steps are as follows:\n200 μM of 1,6-bis-acylated unnatural sugar and 2 mM of sugar without protecting groups were added to a culture medium of HeLa cells for culture, and then bioorthogonal reaction was carried out with Cy5 fluorescently labeled substances, and in-gel fluorescence detection was performed on the differently treated HeLa cells. The detection results are shown in FIGS. 2A-2C (CBB in FIGS. 3A-3D represents Coomassie Brilliant Blue staining to show the loading amount control)."}, "[2]": {"test_system": "B6D2F1/J mice", "experiment": "Metabolic labeling in vivo in mice, in-gel fluorescence of organ homogenates", "conditions": "intraperitoneal, 500 mg/kg every day for 3 or 7 consecutive days; heart, lung, spleen", "method": "In the in vivo mouse experiment, B6D2F1/J mice were intraperitoneally injected with 1,6-Pr2GalNAz or 1,6-Pr2ManNAz (both at a concentration of 500 mg/kg) every day for 3 or 7 consecutive days. The mice were euthanized on the 4th or 8th day, and different organs were selected for homogenization. The azide-modified glycoproteins were click-labeled and separated by SDS-PAGE."}, "[3]": {"test_system": "MCF-7 (MCF7-T2A-GFP) cells", "experiment": "Metabolic glycan labeling in MCF-7 cells expressing GFP", "format": "cell-based", "description": "(§1) The above data well illustrate that 1,6-bis-acylated azidosugars can be metabolically labeled at much lower concentrations than unprotected azidosugars."}, "[4]": {"test_system": "MCF7-AGX2F383G-T2A-GFP cells", "experiment": "Metabolic glycan labeling in MCF-7 cells overexpressing mutant enzyme AGX2F383G", "format": "cell-based", "description": "as §1"}},
  "data": [
    {"smiles": "CC(=O)OCC1OC(OC(C)=O)C(NC(=O)CN=[N+]=[N-])C(O)C1O", "note": "(centres unmarked) [1,6-Ac2GalNAz]", "values": [
      {"measurement": "labeling efficiency compared with 1,6-Pr2GalNAz or 1,6-Pr2ManNAz", "setting": "[1]", "result": "much lower"}
    ]},
    {"smiles": "CCCC(=O)OCC1OC(OC(=O)CCC)C(NC(=O)CN=[N+]=[N-])C(O)C1O", "note": "(centres unmarked) [1,6-Bu2GalNAz]", "values": [
      {"measurement": "labeling efficiency compared with 1,6-Pr2GalNAz or 1,6-Pr2ManNAz", "setting": "[1]", "result": "comparable"}
    ]},
    {"smiles": "CCC(=O)OC[C@H]1OC(OC(=O)CC)[C@H](NC(=O)CN=[N+]=[N-])[C@@H](O)[C@H]1O", "note": "(some centres unmarked) [1,6-Pr2GalNAz]", "values": [
      {"measurement": "labeling efficiency compared with GalNAz or ManNAz", "setting": "[1]", "result": "close to or slightly stronger than 2 mM of sugar without protecting groups"},
      {"measurement": "in vivo metabolic labeling of glycoproteins from organs", "setting": "[2]", "result": "glycoproteins from the heart, lung, and spleen could be well labeled"}
    ]},
    {"smiles": "CCC(=O)OCC1OC(OC(=O)CC)C(NC(=O)CN=[N+]=[N-])C(O)C1O", "note": "(centres unmarked) [1,6-Pr2ManNAz]", "values": [
      {"measurement": "labeling efficiency compared with GalNAz or ManNAz", "setting": "[1]", "result": "close to or slightly stronger than 2 mM of sugar without protecting groups"},
      {"measurement": "in vivo metabolic labeling of glycoproteins from organs", "setting": "[2]", "result": "glycoproteins from the heart, lung, and spleen could be well labeled"}
    ]},
    {"smiles": "[N-]=[N+]=NCC(=O)N[C@H]1C(O)O[C@H](CO)[C@@H](O)[C@@H]1O", "note": "(some centres unmarked) [GlcNAz]", "values": [
      {"measurement": "metabolic labeling", "setting": "[3]", "result": "neither GlcNAz nor 1,6-bis-acylated GlcNAz treatment resulted in obvious labeling"},
      {"measurement": "metabolic labeling", "setting": "[4]", "result": "produced obvious labeling"}
    ]}
  ]
}
